Key:
Assay type in all cases: ADME
Design in all cases: dose 2 uM
Conditions in all cases: 2 µM
GDSL-like protein [1] = target: T1, GDSL-like protein (Collinsella aerofaciens, UniProt A4E7D0); test: (§1) The drug is tested on Collinsella aerofaciens strain: ATCC25986 for biotransformation. The drug concentrations were measured before and after a 12-h incubation by liquid-chromatography-coupled mass spectrometry (LC–MS)
T1 sequence (A4E7D0 whole entry): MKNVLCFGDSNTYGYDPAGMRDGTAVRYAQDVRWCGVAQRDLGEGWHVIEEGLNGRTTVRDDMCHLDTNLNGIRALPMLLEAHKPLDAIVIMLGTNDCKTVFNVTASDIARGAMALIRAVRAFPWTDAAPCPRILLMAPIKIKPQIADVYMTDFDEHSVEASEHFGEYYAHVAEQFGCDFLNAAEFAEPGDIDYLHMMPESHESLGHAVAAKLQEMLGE

Flavodoxin = target: T2, Flavodoxin (Collinsella aerofaciens, UniProt A4ED08); test: as §1
T2 sequence (A4ED08 whole entry): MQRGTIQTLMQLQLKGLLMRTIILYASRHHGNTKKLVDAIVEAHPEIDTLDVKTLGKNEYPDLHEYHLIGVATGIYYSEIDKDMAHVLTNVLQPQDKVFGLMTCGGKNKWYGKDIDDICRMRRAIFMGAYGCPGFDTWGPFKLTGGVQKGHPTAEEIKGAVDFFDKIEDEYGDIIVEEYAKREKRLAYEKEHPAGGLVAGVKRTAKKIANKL

GDSL-like protein [2] = target: T3, GDSL-like protein (Collinsella aerofaciens, UniProt A4E8S4); test: as §1
T3 sequence (A4E8S4 whole entry): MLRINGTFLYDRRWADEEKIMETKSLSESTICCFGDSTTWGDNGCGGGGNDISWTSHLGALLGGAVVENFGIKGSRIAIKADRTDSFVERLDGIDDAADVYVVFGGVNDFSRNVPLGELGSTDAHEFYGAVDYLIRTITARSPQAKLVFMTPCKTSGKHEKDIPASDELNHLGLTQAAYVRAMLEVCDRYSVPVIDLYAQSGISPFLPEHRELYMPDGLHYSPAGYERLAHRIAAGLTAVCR

Diguanylate cyclase = target: T4, Diguanylate cyclase (Collinsella aerofaciens, UniProt A4EB91); test: as §1
T4 sequence (A4EB91 whole entry): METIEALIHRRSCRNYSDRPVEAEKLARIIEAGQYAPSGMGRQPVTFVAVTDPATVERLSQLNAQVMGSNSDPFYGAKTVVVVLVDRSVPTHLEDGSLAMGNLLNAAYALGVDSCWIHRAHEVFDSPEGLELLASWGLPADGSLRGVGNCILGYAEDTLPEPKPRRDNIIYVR

[3] = target: T5, Pyridine nucleotide-disulfide oxidoreductase (Collinsella aerofaciens, UniProt A4EBM5); test: as §1
T5 sequence (A4EBM5 whole entry): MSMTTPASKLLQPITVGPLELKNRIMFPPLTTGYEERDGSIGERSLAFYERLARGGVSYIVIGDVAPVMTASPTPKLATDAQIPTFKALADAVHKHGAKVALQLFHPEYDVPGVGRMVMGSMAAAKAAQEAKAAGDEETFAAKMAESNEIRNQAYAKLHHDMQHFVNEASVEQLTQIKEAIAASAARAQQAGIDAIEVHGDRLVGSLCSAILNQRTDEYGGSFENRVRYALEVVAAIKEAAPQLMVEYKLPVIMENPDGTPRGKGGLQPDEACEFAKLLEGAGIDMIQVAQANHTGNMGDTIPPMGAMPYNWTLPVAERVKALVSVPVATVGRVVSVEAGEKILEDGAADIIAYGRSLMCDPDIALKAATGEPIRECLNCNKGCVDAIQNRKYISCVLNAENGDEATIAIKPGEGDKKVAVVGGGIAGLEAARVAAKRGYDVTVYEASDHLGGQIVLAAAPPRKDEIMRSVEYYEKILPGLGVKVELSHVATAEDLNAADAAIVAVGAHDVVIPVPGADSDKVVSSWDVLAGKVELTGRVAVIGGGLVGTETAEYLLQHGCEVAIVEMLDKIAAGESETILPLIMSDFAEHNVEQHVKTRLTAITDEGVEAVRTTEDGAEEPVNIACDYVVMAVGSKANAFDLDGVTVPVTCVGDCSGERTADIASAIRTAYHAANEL

[4] = target: T6, SGNH hydrolase-type esterase domain-containing protein (Phocaeicola dorei, UniProt B6W1J1); test: (§2) The drug is tested on Bacteroides dorei strain: DSM17855 for biotransformation. The drug concentrations were measured before and after a 12-h incubation by liquid-chromatography-coupled mass spectrometry (LC–MS)
T6 sequence (B6W1J1 whole entry): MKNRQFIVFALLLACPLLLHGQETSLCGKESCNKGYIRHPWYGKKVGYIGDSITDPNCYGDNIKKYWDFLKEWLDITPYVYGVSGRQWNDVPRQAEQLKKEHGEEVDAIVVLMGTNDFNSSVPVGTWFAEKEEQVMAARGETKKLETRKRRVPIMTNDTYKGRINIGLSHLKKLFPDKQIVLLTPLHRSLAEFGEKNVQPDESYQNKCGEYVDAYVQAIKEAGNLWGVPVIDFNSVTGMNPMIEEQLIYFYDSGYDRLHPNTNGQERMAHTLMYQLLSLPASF

[5] = target: T7, Nitroreductase domain-containing protein (Phocaeicola dorei, UniProt B6VU18); test: as §2
T7 sequence (B6VU18 whole entry): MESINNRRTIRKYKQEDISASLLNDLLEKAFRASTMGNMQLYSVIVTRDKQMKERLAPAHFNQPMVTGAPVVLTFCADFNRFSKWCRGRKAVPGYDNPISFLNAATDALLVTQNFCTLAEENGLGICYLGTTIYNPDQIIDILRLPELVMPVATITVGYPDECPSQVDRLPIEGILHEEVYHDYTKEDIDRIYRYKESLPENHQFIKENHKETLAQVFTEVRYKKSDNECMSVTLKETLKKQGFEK

[6] = target: T8, Steroid 5-alpha reductase C-terminal domain-containing protein (Phocaeicola dorei, UniProt B6W0N3); test: as §2
T8 sequence (B6W0N3 whole entry): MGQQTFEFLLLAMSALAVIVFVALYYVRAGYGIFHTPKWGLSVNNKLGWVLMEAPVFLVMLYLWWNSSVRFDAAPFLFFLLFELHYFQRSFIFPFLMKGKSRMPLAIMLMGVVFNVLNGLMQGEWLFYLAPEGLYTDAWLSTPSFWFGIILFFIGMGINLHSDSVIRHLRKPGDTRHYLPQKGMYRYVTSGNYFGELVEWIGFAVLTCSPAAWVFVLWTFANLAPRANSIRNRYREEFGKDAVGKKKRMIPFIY

- Bacterial Biotransformation (GDSL-like protein [1]): Compound NOT metabolized
- Bacterial Biotransformation (Flavodoxin): Compound NOT metabolized
- Bacterial Biotransformation (GDSL-like protein [2]): Compound NOT metabolized
- Bacterial Biotransformation (Diguanylate cyclase): Compound NOT metabolized
- Bacterial Biotransformation [3]: Compound NOT metabolized
- Bacterial Biotransformation [4]: Compound NOT metabolized
- Bacterial Biotransformation [5]: Compound NOT metabolized
- Bacterial Biotransformation [6]: Compound metabolized
SMILES: C[C@]12CCC(=O)C=C1[C@@H]1C[C@@H]1[C@H]1[C@@H]3[C@@H]4C[C@@H]4[C@@]4(CCC(=O)O4)[C@@]3(C)CC[C@@H]12 [DROSPIRENONE]

From ChEMBL document CHEMBL5303573, “Mapping human microbiome drug metabolism by gut bacteria and their genes” (Nature, 2019)
